From patent US5821240A, “Pyrimido[5,4]-dipyrimidines, pharmaceuticals containing them, their use and processes for the preparation thereof” (Dr. Karl Thomae GmbH, priority 1996, dated 1998) come the findings set out here.

Assay [1] has as its system F/L-HERc cells expressing human EGF-R. Briefly: Inhibition of EGF-dependent proliferation of F/L-HERc cells. Format: cell-based, murine cell line; human EGF-R. Conditions: EGF 20 ng/ml, 37° C., 48 hours. From the text:
(§1) In this case, an interleukin-3 (IL-3)-dependent cell line of murine origin was used and was genetically modified in such a way that it expresses functional human EGF-R. Proliferation of these cells, which are called F/L-HERc, can therefore be stimulated either by murine IL-3 or by EGF (see von Ruden, T. et al. in EMBO J. 7, 2749-2756 (1988) and Pierce, J. H. et al. in Science 239, […] (1988)).
(§2) The starting material for the F/L-HERc cells was the cell line FDC-P1 whose preparation has been described by Dexter, T. M. et al. in J. Exp. Med. 152, 1036-1047 (1980). However, it is also possible as an alternative to use other growth factor-dependent cells (see, for example, Pierce, J. H. et al. in Science 239, 628-631 (1988), Shibuya, H. et al. in Cell 70, 57-67 (1992) and Alexander, W. S. et al. in EMBO J. 10, 3683-3691 (1991)). Recombinant retroviruses as described in von Ruden, T. et al., EMBO J. 7, 2749-2756 (1988) Were used for expression of the human EGF-R cDNA (see Ullrich, A. et al. in Nature 309, 418-425 (1984)), with the difference that the retroviral vector LXSN (see Miller, A. D. et al. in BioTechniques 7, 980-990 (1989)) was employed for expression of the EGF-R cDNA, and the line GP+E86 (see Markowitz, D. et al. in J. Virol. 62, 1120-1124 (1988)) was used as packaging cell.
(§3) F/L-HERc cells were cultivated in RPMI/1640 medium (BioWhittaker), supplemented with 10% fetal calf serum (FCS, Boehringer Mannheim), 2 mM glutamine (BioWhittaker), standard antibiotics and 20 ng/ml human EGF (Promega), at 37° C. and 5% CO2. To investigate the inhibitor activity of the compounds according to the invention, 1.5×10^4 cells were cultivated in the above medium (200 μl) per well in triplicates in 96-well plates, stimulating proliferation of the cells either with EGF (20 ng/ml) or with murine IL-3. The source used for IL-3 was culture supernatants from the cell line X63/0 mIL-3 (see Karasuyama, H. et al. in Eur. J. Immunol. 18, 97-104 (1988)). The compounds according to the invention were dissolved in 100% dimethyl sulphoxide (DMSO) and added in various dilutions to the cultures, with the maximum DMSO concentration being 1%. The cultures were incubated at 37° C. for 48 hours.
(§4) To determine the inhibitory activity of the compounds according to the invention, the relative cell count was measured in O.D. units using the Cell Titre 96™ AQueous Non-Radioactive Cell Proliferation Assay (Promega). The relative cell count was calculated as a percent of the control (F/L-HERc cells without inhibitor), and the concentration of active substance which inhibits the proliferation of the cells by 50% (IC50) was inferred.

For the next assay, the system named is F/L-HERc cells. The assay is described as follows: Inhibition of IL-3-dependent proliferation of F/L-HERc cells. The class given is cell-based. To be noted: Mus musculus, murine IL-3, 37° C., 48 hours.
Source text: as §1, §2, §3, §4

The test system of assay [2] is human tumour cell line KB. Briefly: Inhibition of EGF/TGF-alpha-stimulated KB cell proliferation ([3H]-thymidine incorporation). The class given is cell-based. Conditions: TGF-alpha 10 ng/ml or EGF 20 ng/ml, serum-free, 60 hours then [3H]-thymidine 16-18 h. As to the method: KB cells (purchased from ATCC) were passaged in DMEM (BioWhittaker) in the presence of 10% FCS (Boehringer Mannheim), 50 μM beta-mercaptoethanol and standard antibiotics. The EGF-induced DNA synthesis was determined by measuring the incorporation of radioactively labelled thymidine as indicator of EGF/TGF-alpha-stimulated cell proliferation. To do this, the cells were washed twice and 1500 cells per well were plated out in a 96-well plate in 200 μl of IMDM (BioWhittaker) without serum in the presence of 50 μM beta-mercaptoethanol, standard antibiotics, TGF-alpha [10 ng/ml] or EGF [20 ng/ml] and of various concentrations of the substances according to the invention (triplicates, maximum DMSO concentration 1%, see proliferation t t with F/L-HERc cells). After 60 hours, [^3 H]-thymidine (0.1 μCi in 10 μl) was added for about 16-18 h.

Each structure is given as a SMILES string. A value given as a limit tells only on which side of the number the result lay.

For the molecule `Nc1c(Cl)cc(Nc2ncnc3cnc(N[C@H]4CC[C@H](C(=O)O)CC4)nc23)cc1Cl` [1(16), 4-[(4-Amino-3,5-dichlorophenyl)amino]-6-[(trans-4-carboxycyclohexyl)amino]pyrimido[5,4-d]pyrimidine], the IC50 in assay [1] is 20 nM; with F/L-HERc cells, greater than 1000 nM; in assay [2] it was 100 to 1000 nM.

Take `CC(CN1CCCCC1)Nc1ncc2ncnc(Nc3ccc(F)c(Cl)c3)c2n1` (stereo not drawn) [1(20), 4-[(3-Chloro-4-fluorophenyl)amino]-6-[1-(1-piperidinyl)-2-propylamino]pyrimido[5,4-d]pyrimidine]: the IC50 in assay [1] was 225 nM; in the assay on F/L-HERc cells, greater than 1000 nM; in assay [2], 100 to 1000 nM.

Consider `Nc1c(Cl)cc(Nc2ncnc3cnc(N[C@H]4CC[C@H](C(=O)N5CCOCC5)CC4)nc23)cc1Cl` [1(17), 4-[(4-Amino-3,5-dichlorophenyl)amino]-6-[trans-4-(morpholinocarbonyl)cyclohexylamino]pyrimido[5,4-d]pyrimidine], for which the IC50 is 1 nM in assay [1], greater than 1000 nM in the assay on F/L-HERc cells and 100 to 1000 nM in assay [2].

In the case of `Nc1c(Cl)cc(Nc2ncnc3cnc(N[C@H]4CC[C@H](C(=O)N5CCCC5)CC4)nc23)cc1Cl` [1(18), 4-[(4-Amino-3,5-dichlorophenyl)amino]-6-[trans-4-(pyrrolidinocarbonyl)cyclohexylamino]pyrimido[5,4-d]pyrimidine], the IC50 in assay [1] was 3 nM; in the assay with F/L-HERc cells, greater than 1000 nM; in assay [2], 100 to 1000 nM.

Turning to `Fc1ccc(Nc2ncnc3cnc(NC4CN5CCC4CC5)nc23)cc1Cl` (racemic) [1(4), (3'RS)-4-[(3-Chloro-4-fluorophenyl)amino]-6-[(3'-quinuclidinyl)amino]pyrimido[5,4-d]pyrimidine], the IC50 in assay [1] was 15 nM; with F/L-HERc cells, greater than 10000 nM; in assay [2], 100 to 1000 nM.

For the molecule `NCC1CCC(CNc2ncc3ncnc(Nc4ccc(F)c(Cl)c4)c3n2)CC1` (stereo not drawn) [1(22), 4-[(3-Chloro-4-fluorophenyl)amino]-6-[4-(aminomethyl)cyclohexylmethylamino]pyrimido[5,4-d]pyrimidine], the concentration for half-maximal inhibition (IC50) in assay [1] was 43 nM; in the assay with F/L-HERc cells, greater than 1000 nM; in assay [2], 100 to 1000 nM.

On to `NCC1CCN(c2ncc3ncnc(Nc4ccc(F)c(Cl)c4)c3n2)CC1` [1(7), 4-[(3-Chloro-4-fluorophenyl)amino]-6-[4-(aminomethyl)-1-piperidinyl]pyrimido[5,4-d]pyrimidine], for which the IC50 was 8 nM in assay [1], greater than 1000 nM in the assay with F/L-HERc cells and 100 to 1000 nM in assay [2].

Broadly, the IC50 is the point on the concentration scale where inhibition reaches its midpoint. Read a high IC50 as weaker potency in that assay.
